Results published in patent US9283277B2, “Methods and compositions for the treatment of obesity” (Children's Medical Center Corporation, priority 2008, dated 2016).

Assays:
[1] = system: LepRB signaling (LepRB, Jak2, Stat3); experiment: Leptin receptor signaling in LepRB-expressing 293 cells under tunicamycin-induced ER stress; assay type: cell-based, Human; conditions: then leptin 100 ng/ml 45 minutes
Text: The leptin receptor belongs to the interleukin 6 (IL-6) receptor family of class I cytokine receptors^30. […] Binding of leptin to LepRb initiates a conformational change that leads to trans-autophosphorylation and activation of LepRb-associated Jak2^31,32 Activated Jak2 then phosphorylates the tyrosine residues within the LepRb/Jak2 complex to mediate downstream signaling. […] To examine whether UPR might alter the leptin signaling, LepRB-expressing 293 cells were first exposed to tunicamycin (3 μg/ml) to activate ER stress for a period of 4 hours and then treated with leptin (100 ng/ml) for 45 minutes. […] Finally, as a downstream element, leptin-stimulated Stat3 activation was analyzed.

[2] = system: LepRB signaling (LepRB, Jak2, Stat3); experiment: Tunicamycin dose curve and time course in Ad-LacZ, Ad-XBP1s or Ad-ATF6n infected LepRb-expressing 293 cells; assay type: cell-based, Human
Text: To determine whether exogenous expression of XBP1s and a consequent increase in ER folding capacity would enhance leptin receptor signaling, we generated an XBP1s-encoding adenovirus (Ad-XBP1s) and also a LacZ-expressing adenovirus (Ad-LacZ) as a control. Infection of mouse embryonic fibroblasts (MEFs) with Ad-XBP1s increased the protein level of XBP1s (data not shown). To test whether the expressed XBP1s was functional, we co-infected cells with Ad-XBP1s and a luciferase reporter gene-driven by an ERSE. […] ERDJ4 is a chaperone and involved in folding of ER proteins. […] After showing that Ad-XBP1s is functional and can increase ER folding capacity, we subsequently overexpressed the XBP1s in the LepRb-expressing 293 cells and performed two sets of experiments. In the first, we asked whether XBP1s overexpression could enhance the leptin-stimulated tyrosine phosphorylation of LepRb and increase the ability of the cells withstand to the ER stress-mediated blockade of LepRb activation. For this purpose we stimulated the 293 cells with increasing doses of tunicamycin (0.001, 0.01, 0.05, 0.1 and 1 μg/ml) for 5 hours and analyzed leptin-stimulated LepRb activation. In Ad-LacZ infected cells, LepRb activation was blocked at tunicamycin doses of 0.01 μg/ml and higher (data not shown). […]

insulin receptor (IR) = experiment: Insulin receptor activation in LepRB-expressing 293 cells after tunicamycin; assay type: cell-based, Human; conditions: tunicamycin 3 μg/ml five hours, insulin 100 nM five minutes
Method: To exclude the possibility that LepRB-expressing 293 cells become dysfunctional due to a possible toxicity generated by tunicamycin, we investigated the insulin receptor (IR) activation by stimulating the cells with insulin (100 nM) for five minutes after five-hour tunicamycin (3 μg/ml) treatment.

LepRB = LepRB membrane translocation (immunofluorescence) and leptin-binding assay in 293 cells; assay type: cell-based, Human
Method: Considering the fact that LepRB is folded in the ER, we investigated whether ER stress blocks leptin receptor translocation to the membrane from the ER and whether this could be a reason for the blockade of leptin signaling. We stimulated the 293 cells with tunicamycin for five hours (3 μg/ml) and analyzed leptin receptor levels in the plasma membrane by immunofluoresence staining. It was observed that LepRB folding is still preserved and its translocation to the membrane is not decreased in ER stress conditions. Next, we performed leptin-binding assays in DMSO and tunicamycin-treated cells to exclude the possibility of a defect in binding of leptin to LepRB.

[3] = system: hypothalamus of lean mice; experiment: Tunicamycin infusion to the third ventricle of lean mice; assay type: in vivo
Text: Having shown that ER stress is increased in the hypothalamus of HFD-fed mice and causes leptin resistance in the cellular systems, we sought to investigate whether leptin action could also be blocked by directly inducing ER stress in brains of lean mice.
Next, we investigated the expression patterns of leptin resistance markers such as neuropeptide Y (NPY) and agouti related peptide (AgRP) in the vehicle- and tunicamycin-infused mice. […] In addition, to exclude the possibility that tunicamycin infusion leads to a decay in mRNA degradation of NPY and AgRP due to a possible toxic effect, we analyzed mRNA levels of IR and insulin receptor substrate 1 (IRS1).
To assess whether increased ER stress and activation of UPR signaling would create leptin resistance and block the leptin-stimulated Stat3 activation in the hypothalamus, leptin (1 mg/kg/day) was intraperitoneally administered 5½ hours after tunicamycin infusion. The experiment was ended by dissection of the hypothalami 30 minutes after leptin administration. […] In contrast, administration of tunicamycin to the third ventricle and creation of ER stress, in complete accordance with our data obtained from 293 cells, blocked activation of Stat3 in the hypothalamus (data not shown).

[4] = tunicamycin 3 μg/ml (or DMSO) 4 hours

Question: How did the “leptin-stimulated Jak2 tyrosine phosphorylation” value ([1]; tunicamycin 3 μg/ml 4 hours) turn out when tunicamycin was run?
Answer: Its value is “reduced to an undetectable level”.

Question: What about the “leptin-induced Stat3 phosphorylation (Tyr705)” value [1, 4] of the same substance?
Answer: The value was “totally abolished”.

Question: And the “leptin-stimulated LepRB tyrosine phosphorylation” value [1, 4]?
Answer: The value was “completely inhibited”.

Question: And the “time until leptin-stimulated LepRb, Jak2 activation and Stat3 tyrosine phosphorylation are blocked” value ([2]; Ad-LacZ infected 293 cells, tunicamycin 0.05 μg/ml)?
Answer: The value was no more than 2 h.

Question: And the “CHOP mRNA expression” value ([2]; tunicamycin 0.01 and 0.05 μg/ml, five hours)?
Answer: Its value is “upregulates”.

Question: What about the “insulin-stimulated IR tyrosine phosphorylation” value (insulin receptor (IR)) of the same substance?
Answer: The value was “did not change”.

Question: What about the “LepRB translocation to the plasma membrane” value (LepRB; 293 cells, tunicamycin 3 μg/ml five hours, immunofluorescence) of the same substance?
Answer: Its value is “not decreased”.

Question: What about the “leptin binding to LepRB” value (LepRB; tunicamycin-treated vs DMSO-treated cells) of the same substance?
Answer: The value was “significantly increased”.

Question: And the “Stat3 phosphorylation (activation) in the hypothalamus” value ([3]; leptin 1 mg/kg IP 5½ hours after third ventricle tunicamycin or vehicle infusion, 30 minutes after leptin)?
Answer: Its value is “blocked”.

Question: What about the “POMC mRNA levels in hypothalamus” value ([3]; third ventricle infusion) of the same substance?
Answer: The value was “did not show any significant difference”.

Question: And the acute food intake ([3]; third ventricle infusion)?
Answer: Its acute food intake is “significantly increased”.

Question: What about the “hypothalamic mRNA levels of IR and IRS1” value ([3]; third ventricle infusion) of the same substance?
Answer: Its value is “does not lead to a change”.

Question: And the “mRNA levels of NPY and AgRP in hypothalamus” value ([3]; third ventricle infusion)?
Answer: The value was “significant increase”.

Question: And the “mRNA levels of ER stress-responsive genes (XBP1s, CHOP, ERDJ4) in hypothalamus” value ([3]; third ventricle infusion, twelve hours after infusion)?
Answer: Its value is “significantly upregulated”.
